Assay results from patent EP4810508A1, “ARABINOSE DERIVATIVE COMPOUND, AND COMPOSITION COMPRISING SAME FOR PREVENTING OR TREATING DEGENERATIVE BRAIN DISEASES” (Digmbio. Inc., priority 2023, dated 2025).
Where two headings read alike, the source gives them in different places.

Test system: HRE/Luc/HEK293 cells
Test: HRE (Hypoxia Response Element) luciferase assay
Assay type: cell-based, human
Details: for fold induction at 10 µM / fold induction at 100 µM: Homo sapiens; for HRE assay: increase in HRE expression levels by the test substance relative to the vehicle in HRE/Luc/HEK293 cells
Experimental: • (a) HRE assay: Confirmation of increased in HRE expression levels by the test substance relative to the vehicle in HRE/Luc/HEK293 cells • * Less than a twofold increase at 100 µM, • ** More than a twofold increase at 100 µM, • *** More than a twofold increase at 10 µM, • **** More than a twofold increase at 1 µM, • Not performed.
It has been reported that in the brains of AD patients, blood supply is mostly insufficient, resulting in oxygen levels being up to 50% lower than those of normal individuals, leading to increased oxidative stress (ROS) and neuroinflammation. It has also been studied that when the HIF-1α (hypoxia inducible factor-1) factor binds to the HRE (hypoxia response element), it increases VEGF (vascular endothelial growth factor), which promotes the formation of new blood vessels, thereby increasing oxygen levels in the brain and helping to inhibit nerve cell damage.
A reporter gene containing luciferase, capable of verifying the level of HRE expression, was inserted into HEK-293 human embryonic kidney cells, and HRE/Luc/HEK293 cells were constructed by inserting a plasmid (HRE/Luc) with luciferase attached downstream of the HRE promoter that binds to HIF-1α using lipofectamine (Invitrogen).
To perform HRE luciferase analysis, HRE/Luc/HEK293 cells were seeded in 96-well culture plates at a cell density of 4 x 10^4 per well in minimal essential medium (MEM) containing 10% fetal bovine serum. After one day, the cell medium was removed and replaced with medium mixed with various concentrations of example compounds. Six hours after compound pretreatment, HRE/Luc/HEK293 cells were cultured under hypoxic conditions (O2 0.1%) for 18 hours. Subsequently, the cells were washed with phosphate buffer, lysed with lysis buffer, and then the luciferase reagent (Promega) for luciferase analysis was added. Afterward, changes in HRE expression levels associated with HIF-1 signaling were evaluated by measuring luminescence using an Infinite200 (Tecan).

[1] = HEK293, 10uM, fold increase of HRE expression, hypoxic conditions (O2 0.1%) 18 hours, Table 2, read-out: HRE-increasing 10uM
[2] = HEK293, 100uM, fold increase of HRE expression, hypoxic conditions (O2 0.1%) 18 hours, Table 2, read-out: HRE-increasing 100uM
[3] = HEK293, 18 h, 10uM, Table 2 (Examples 37-74, 52), read-out: HKt-increasing 10uM
[4] = HEK293, 18 h, 100uM, Table 2 (Examples 37-74, 52), read-out: HKt-increasing 100uM

Row | Compound | fold induction at 10 µM [1] | fold induction at 100 µM [2] | fold induction at 10 µM [3] | fold induction at 100 µM [4] | further results
1 | COc1ccc(Cc2ccc(O[C@@H]3OC[C@H](O)[C@H](O)[C@H]3O)cc2)cc1 [Example 4] | 1.1 | < 1 |  |  | HRE assay: α
2 | COc1ccc(Cc2ccc(O[C@H]3OC[C@H](O)[C@H](O)[C@H]3OC)cc2)cc1 [Example 5, (3S,4S,5R,6R)-5-methoxy-6-(4-(4-methoxybenzyl)phenoxy)tetrahydro-2H-pyran-3,4-diol] | 1.2 | 1.9 |  |  | 
3 | O[C@@H]1[C@@H](O)[C@@H](Oc2ccc(Cc3ccc(OC(F)(F)F)cc3)cc2)OC[C@@H]1O [Example 10] |  |  |  |  | HRE-increasing 10uM (10uM, fold increase of HRE expression, hypoxic conditions (O2 0.1%) 18 hours, Table 2): 1; HRE-increasing 100uM (100uM, fold increase of HRE expression, hypoxic conditions (O2 0.1%) 18 hours, Table 2): <1; HRE assay: •
4 | CSc1ccc(Cc2ccc(O[C@H]3OC[C@H](O)[C@H](O)[C@H]3O)cc2)cc1 [Example 11, (2R,3R,4S,5S)-2-(4-(4-(methylthio)benzyl)phenoxy)tetrahydro-2H-pyran-3,4,5-triol] | 2.4 | 2.4 |  |  | HRE assay: •••
5 | CN(C)c1ccc(Cc2ccc(O[C@@H]3OC[C@H](O)[C@H](O)[C@H]3O)cc2)cc1 [Example 12, (2S,3R,4S,5S)-2-(4-(4-(dimethylamino)benzyl)phenoxy) tetrahydro-2H-pyran 3,4,5-triol] | 1.2 | 1.6 |  |  | HRE assay: •
6 | O[C@@H]1[C@@H](O)[C@@H](Oc2ccc(Cc3cc(C(F)(F)F)cc(C(F)(F)F)c3)cc2)OC[C@@H]1O [Example 16, (2R,3R,4S,5S)-2-(4-(3,5-bis(trifluoromethyl)benzyl)phenoxy) tetrahydro-2H-pyran-3,4,5-triol] | 1 | < 1 |  |  | 
7 | COc1ccc(Cc2ccc(O[C@H]3OC[C@H](O)[C@H](O)[C@H]3O)cc2)cc1OC [Example 17, (2R,3R,4S,5S)-2-(4-(3,4-dimethoxybenzyl)phenoxy)tetrahydro-2H-pyran-3,4-triol] | 1.2 | 1.5 |  |  | 
8 | COc1cc(Cc2ccc(O[C@H]3OC[C@H](O)[C@H](O)[C@H]3O)cc2)cc(OC)c1OC [Example 18, (2R,3R,4S,5S)-2-(4-(3,4,5-trimethoxybenzyl)phenoxy) tetrahydro-2H-pyran-3,4,5-triol] | 1.2 | 1.3 |  |  | 
9 | O[C@@H]1[C@@H](O)[C@@H](Oc2ccc(Cc3ccc4ccccc4c3)cc2)OC[C@@H]1O [Example 19, (2R,3R,4S,5S)-2-(4-(naphthalen-2-ylmethyl)phenoxy) tetrahydro-2H-pyran-3,4,5-triol] | 1.3 | 1.8 |  |  | 
10 | O[C@@H]1[C@@H](O)[C@@H](Oc2ccc(CC3CCCC3)cc2)OC[C@@H]1O [Example 21, (2R,3R,4S,5S)-2-(4-(cyclopentylmethyl)phenoxy)tetrahydro-2H-pyran-3,4,5-triol] | 2.3 | 2.4 |  |  | 
11 | O[C@@H]1[C@@H](O)[C@H](Oc2ccc(Cc3cccnc3)cc2)OC[C@@H]1O [Example 24, (2S,3R,4S,5S)-2-(4-(pyridin-3-ylmethyl)phenoxy)tetrahydro-2H-pyran-3,4,5-triol] | 1.1 | 1.1 |  |  | 
12 | O[C@@H]1[C@@H](O)[C@@H](O)CO[C@@H]1Sc1ccc(Cc2ccccc2)cc1 [Example 26, (2R,3R,4S,5S)-2-((4-benzylphenyl)thio)tetrahydro-2H-pyran-3,4,5-thiol] | 2.1 | 2.5 |  |  | 
13 | CC(C)c1ccc(Cc2ccc(S[C@@H]3OC[C@H](O)[C@H](O)[C@H]3O)cc2)cc1 [Example 28, (2S,3R,4S,5S)-2-((4-(4-isopropylbenzyl)phenyl)thio) tetrahydro-2H-pyran-3,4,5-triol] | 1.8 |  |  |  | 
14 | COc1ccc(Cc2ccc(S[C@H]3OC[C@H](O)[C@H](O)[C@H]3O)cc2)cc1 [Example 29, (2R,3R,4S,5S)-2-((4-(4-methoxybenzyl)phenyl)thio) tetrahydro-2H-pyran-3,4,5-thiol] | 2.7 | 2.6 |  |  | 
15 | COc1ccc(C(c2ccc(O[C@H]3OC[C@H](O)[C@H](O)[C@H]3O)cc2)(C(F)(F)F)C(F)(F)F)cc1 [Example 32, (2R,3R,4S,5S)-2-(4-(1,1,1,3,3,3-hexafluoro-2-(4-methoxyphenyl)propan-2-yl)phenoxy)tetrahydro-2H-pyran-3,4,5-triol] | 1.3 | 1.8 |  |  | 
16 | Cc1cc(C)cc(Oc2ccc(O[C@H]3OC[C@H](O)[C@H](O)[C@H]3O)cc2)c1 [Example 34, (2R,3R,4S,5S)-2-(4-(3,5-dimethylphenoxy)phenoxy)tetrahydro-2H-pyran-3,4,5-triol] | 1.1 | 1 |  |  | 
17 | COc1ccc(Cc2ccc(O[C@H]3OC[C@H](O)[C@H](O)[C@H]3O)cc2)cc1Cl [Example 37, (2R,3R,4S,5S)-2-(4-(3-chloro-4-methoxybenzyl)phenoxy)tetrahydro-2H-pyran-3,4,5-triol] |  |  | 1.1 | 1.3 | 
18 | COc1ccc(Cc2ccc(O[C@H]3OC[C@H](O)[C@H](O)[C@H]3O)cc2Cl)cc1 [Example 38, (2R,3R,4S,5S)-2-(3-chloro-4-(4-methoxybenzyl)phenoxy)tetrahydro-2H-pyran-3,4,5-triol] |  |  | 1.3 | 2.2 | 
19 | CCOc1ccc(Cc2ccc(O[C@H]3OC[C@H](O)[C@H](O)[C@H]3O)cc2)cc1 [Example 39, (2R,3R,4S,5S)-2-(4-(4-ethoxybenzyl)phenoxy) tetrahydro-2H-pyran-3,4,5-triol] |  |  | 1.1 | 1.3 | 
20 | CC(C)c1ccc(Cc2ccc(O[C@H]3OC[C@H](O)[C@H](O)[C@H]3O)cc2Cl)cc1 [Example 40, (2R,3R,4S,5S)-2-(3-chloro-4-(4-isopropylbenzyl)phenoxy)tetrahydro-2H-pyran-3,4,5-triol] |  |  | 2.6 | 3.1 | 
21 | COc1ccc(Cc2ccc(O[C@H]3OC[C@@H](O)[C@H](O)[C@H]3O)cc2)cc1 [Example 42, (2R,3R,4S,5R)-2-(4-(4-methoxybenzyl)phenoxy) tetrahydro-2H-pyran-3,4,5-triol] |  |  | 2.4 | 3.1 | 
22 | CC(C)c1ccc(Cc2ccc(O[C@H]3OC[C@@H](O)[C@H](O)[C@H]3O)cc2)cc1 [Example 43, (2R,3R,4S,5R)-2-(4-(4-isopropylbenzyl)phenoxy)tetrahydro-2H-pyran-3,4,5-triol] |  |  | 3.3 | 2.5 | HRE expression (low concentration of 1 µM): more than threefold
23 | CC(C)Oc1ccc(Cc2ccc(O[C@H]3OC[C@H](O)[C@H](O)[C@H]3O)cc2)cc1 [Example 44] |  |  | 1.1 | 1.3 | 
24 | O[C@@H]1[C@@H](O)[C@@H](Oc2ccc(Cc3ccc(OC4CCCC4)cc3)cc2)OC[C@@H]1O [Example 45, (2R,3R,4S,5S)-2-(4-(4-(cyclopentyloxy)benzyl)phenoxy)tetrahydro-2H-pyran-3,4,5-triol] |  |  | 1.1 | 1.3 | 
25 | COc1ccc(Cc2ccc(O[C@H]3OC[C@H](O)[C@H](O)[C@H]3O)c(F)c2)cc1 [Example 46, (2R,3R,4S,5S)-2-(2-fluoro-4-(4-methoxybenzyl)phenoxy)tetrahydro-2H-pyran-3,4,5-triol] |  |  | 1.1 | 1.8 | 
26 | COc1ccc(Cc2ccc(O[C@H]3OC[C@H](O)[C@H](O)[C@H]3O)cc2F)cc1 [Example 47, (2R,3R,4S,5S)-2-(3-fluoro-4-(4-methoxybenzyl)phenoxy)tetrahydro-2H-pyran-3,4,5-trio] |  |  | 1 | 1.2 | 
27 | CC(C)c1ccc(Cc2ccc(O[C@H]3OC[C@H](O)[C@H](O)[C@H]3O)cc2F)cc1 [Example 48, (2R,3R,4S,5S)-2-(3-fluoro-4-(4-isopropylbenzyl)phenoxy)tetrahydro-2H-pyran-3,4,5-triol] |  |  | 1.3 | 2.3 | 
28 | COc1ccc(Cc2ccc(O[C@H]3OC[C@H](O)[C@H](O)[C@H]3O)cc2)c(Cl)c1 [Example 49, (2R,3R,4S,5S)-2-(4-(2-chloro-4-methoxybenzyl)phenoxy)tetrahydro-2H-pyran-3,4,5-triol] |  |  | 1 | 1.1 | 
